In patent publication US20250186421A1, “METHODS OF TREATING INFLAMMATORY AND/OR ALLERGIC DISORDERS WITH NORKETOTIFEN” (Bridge Pharma, Inc., priority 2025, published 2025):
Read-outs that look alike come from different tables or passages of the source. Marks after values point to notes of the source that are not given here.

Tests used:
[1] = dog, in vivo
Protocol: In the Phase 2 study described herein, doses of 4 mg (maintenance) and 8 mg (loading) were used, with very good effects and with no toxicity. The margin of safety (MOS) was calculated by dividing animal: human doses in mg/kg, or dividing animal systemic exposure (AUC) at no adverse effect level (NOAEL) (a 28-day dog study), with human systemic exposure AUC (from human Phase 1 study), or by dividing animal: to human dose expressed in m2 (body surface area—BSA), or by calculating HED (human equivalent dose).

[2] = Fed and fasted oral administration of norketotifen to dogs (food effect PK); format: in vivo; details: 4 mg/kg oral; for AUC(0-inf) / Cmax: dog, plasma, po, 4 mg/kg
Protocol: Norketotifen was administered to dogs with and without food. For fed animals, canned food (one can (374 g) of Lamb Ground Dinner with Chicken & Rice per dog was weighed then offered for a period of 30 min prior to dosing at 4 mg/kg. After dosing, dry food (25% protein) was offered. For fasted animals, dogs were fasted overnight and until 4 h post dose and then offered dry food. The results are given in Table 2.

[3] = PK parameters in plasma and skin of dogs after 28 days of oral dosing; format: in vivo; details: for AUC(0-inf): N=5; for MRT / half-life: dog, po
From the text: However, for the treatment of the dermal and pulmonary disorders described herein for treatment efficacy, the dermal/pulmonary exposure are more important than systemic exposure, that is, efficacy depends on the skin/pulmonary AUC/Cmax, which are considered to be sites of action for these conditions. The pharmacokinetic parameters in skin and plasma after oral dosing of norketotifen to dogs (N=5) are shown below.

[4] = tested on: atopic dermatitis; test: Phase 2a study of oral norketotifen in atopic dermatitis; format: in vivo, human
Protocol: The efficacy and safety of norketotifen orally administered to human subjects over a 28 day period were determined in a Phase 2 study. Norketotifen efficacy was compared to the clinical data in the prescribing information for Eucrisa® by dermal application; and compared to the clinical data in the prescribing information (product monograph) for Dupixent® by subcutaneous administration. In the Phase 2a study, 8 subjects were administered Placebo and 16 subjects were administered norketotifen. Oral norketotifen was administered at 4 mg BID (twice per day) for 4 days, followed by 4 mg QD (once per day). The duration of the study was 4 weeks. The parameters determined were: IGA score, Investigator's Global Assessment scale. The scale is as follows: • 0=clear—No inflammatory signs of atopic dermatitis (no erythema, no induration/papulation, no lichenification, no oozing/crusting). Post-inflammatory hyperpigmentation and/or hypopigmentation may be present. • 1=almost clear—Barely perceptible erythema, barely perceptible induration/papulation, and/or minimal lichenification. No oozing or crusting. • 2=mild—Slight but definite erythema (pink), slight but definite induration/papulation, and/or slight but definite lichenification. No oozing or crusting. • 3=moderate—Clearly perceptible erythema (dull red), clearly perceptible induration/papulation, and/or clearly perceptible lichenification. Oozing and crusting may be present. • 4=severe—Marked erythema (deep or bright red), marked induration/papulation, and/or marked lichenification. Disease is widespread in extent. Oozing or crusting may be present. In the IGA assessment, a responder was identified as a subject with IGA 0 or 1 (clear or almost clear) after treatment. A partial responder was defined as having an IGA score>1, but less than the initial score recorded on Day 1. A non-responder is a subject in which the initial IGA score was identical to the IGA score at the end of treatment (i.e. no change in score numbers). […] In Table 4, the results for norketotifen were compared to the results from the Dupixent® prescribing information.

[5] = Accumulation of norketotifen in skin after oral administration; format: in vivo; details: read-out: Terminal half-life (t1/2e)
From the text: As used herein, the term biophase refers to the site(s) where a drug expresses its therapeutic activity. […] Thus, norketotifen can advantageously be used to treat dermal inflammatory and/or allergic diseases.

[6] = Distribution of norketotifen to the lungs after oral administration; format: in vivo; details: lung / plasma, read-out: Lung concentration relative to plasma concentration
From the text: Norketotifen, after oral administration, is rapidly absorbed and is also preferentially distributed to the lungs, where the concentration of RS-norketotifen can reach concentrations that may be 100 times higher than the plasma concentration.

[7] = Phase 1 study, 8 mg/day for 7 days, plasma steady-state; format: in vivo, human; details: 8 mg/day for 7 days Phase 1 study
[8] = Incidence of vomiting in dogs administered norketotifen as a function of Cmax and AUC; format: in vivo; details: FIGS. 1 and 2
[9] = tested on: atopic dermatitis; details: 16 weeks, 224 subjects, cited from earlier work
[10] = Fast (fasted overnight until 4 h post dose)
[11] = oral 4 mg BID for 4 days, then 4 mg QD for 24 days, 4 weeks, 16 subjects

Compound: O=C1Cc2ccccc2C(=C2CCNCC2)c2ccsc21 (racemic) [norketotifen]
- Margin of safety (animal: human), Systemic exposure (AUC0-inf.) ([1]; 2 mg): 127-fold
- Margin of safety (animal: human), Systemic exposure (AUC0-inf.) ([1]; 4 mg): 72-fold
- Margin of safety (animal: human), Systemic exposure (AUC0-inf.) ([1]; 16 mg): 19-fold
- Margin of safety (animal: human), Systemic exposure (AUC0-inf.) ([1]; 32 mg): 6-fold
- Margin of safety (animal: human), Systemic exposure (AUC0-inf.) ([1]; 64 mg): 3-fold
- % difference in AUC0-∞, fed vs fasted (reduction in fed animals) [2]: 26%
- AUC(0-inf) [2, 10]: 522 ng·h/mL
- Cmax [2, 10]: 93 ng/mL
- AUC(0-inf) ([2]; Fed): 390 ng·h/mL
- Cmax ([2]; Fed): 58 ng/mL
- AUC(0-inf) ([3]; dog plasma, after 28 days of oral dosing): 4520 ng·h/mL
- AUC(0-inf) ([3]; dog skin, after 28 days of oral dosing): 46100 ng·h/mL
- MRT ([3]; plasma, dog plasma, after 28 days of oral dosing, read-out: MRT (mean residence time)): 17.5 h
- half-life ([3]; plasma, dog plasma, after 28 days of oral dosing, read-out: t ½(e) (converted)): 38.3 h
- MRT ([3]; skin, dog skin, Phase 2 = 14 day post dosing period, read-out: MRT (phase 2)): 159 h
- half-life ([3]; skin, dog skin, Phase 2 = 14 day post dosing period, read-out: t ½(e) (phase 2) (converted)): 160 h
- MRT ([3]; skin, dog skin, after 28 days of oral dosing, read-out: MRT (mean residence time)): 86.5 h
- half-life ([3]; skin, dog skin, after 28 days of oral dosing, read-out: t ½(e) (converted)): 25.4 h
- Safety/tolerability in the safety population ([4]; 28 days oral treatment, adverse event in only one patient, resolved completely): well-tolerated, with no reported instances of serious adverse events or treatment-related adverse events
- Toxicity at Phase 2 doses ([4]; doses of 4 mg (maintenance) and 8 mg (loading)): no toxicity
- Nausea or vomiting when dosed on a full stomach ([4]; human subjects, with food, up to a dose of 16 mg): no nausea or vomiting was noted
- % reduction of affected BSA (Baseline to Day 29) ([4]; oral 4 mg BID for 4 days, then 4 mg QD for 24 days): −63.3%^
- IGA scores >1, but less than the initial scores on Day 1 (partial responders) [4, 11]: 50%
- Non responders at all [4, 11]: 6.1%
- IGA scores ≤1, percent responders ([4]; oral 4 mg BID for 4 days, then 4 mg QD for 24 days, 4 weeks, 16 subjects, p = 0.0095 / 0.0031 vs Placebo (Fisher's exact test)): 43.89% ^b
- Pruritus, score 0, percentage improvement for NK group ([4]; pruritus severity scale 0-3, 4 weeks, p = 0.016 vs Placebo): 62.5%^c
- half-life [5]: 144 to 168 h
- Kp [6]: ~100
- Time to plasma steady-state [7]: ≤ 4 days
- Incidence of vomiting vs systemic Cmax and AUC [8]: incidence of vomiting increases as both systemic Cmax and AUC increase

Compound: Dupilumab: recombinant human IgG4 monoclonal antibody binding IL-4Rα, inhibits IL-4 and IL-13 signaling; subcutaneous injection
- IGA scores ≤1, percent responders ([9]; 300 mg Q2W subcutaneous): 37.9%
- NRS ≥4 score improvement, percentage response for dupilumab group ([9]; pruritus NRS 0-10, 300 mg Q2W): 40.8%
